Assay results as given in US8557848B2, “4,5-ring annulated indole derivatives for treating or preventing of HCV and related viral infections” (Merck Sharp & Dohme Corp., priority 2006, dated 2013).
Where two headings read alike, the source gives them in different places.

Tests used:
[1] = target: T1, HCV NS5B polymerase (NS5BΔCT21, from HCV-Con 1 isolate, genotype 1b) (Hepatitis C virus genotype 1b, UniProt Q9WMX2); assay: HCV NS5B Polymerase Inhibition Assay; type: biochemical
T1 construct: A soluble C-terminal 21-amino acid truncated NS5B enzyme form; polyhistidine (C); made in house; host or cells: Escherichia coli
Text: A chemically synthesized 75-mer version, designated DCoH75, whose sequence matches the 3′-end of D-RNA, and DCoH75ddC, where the 3′-terminal cytidine of DCoH75 is replaced by dideoxycytidine, were used for assaying the NS5B enzyme activity as described in Ferrari et al., 12th International Symposium on HCV and Related Viruses, P-306 (2005). The sequence of the template RNA was: 5′-UGUGCCGGUCUUUCUGAACGGGAUAUAAACCUGGCCAGCUUCAUCGAACAAGUUGCCGUGUCUAUGACAUAGAUC-3′. A soluble C-terminal 21-amino acid truncated NS5B enzyme form (NS5BΔCT21, from HCV-Con 1 isolate, genotype 1b, Genbank accession number AJ238799) was produced and purified from Escherichia coli as C-terminal polyhistidine-tagged fusion protein as described in Ferrari et al., J. Virol. 73:1649-1654 (1999). A typical assay contained 20 mM Hepes pH 7.3, 10 mM MgCl2, 60 mM NaCl, 100 μg/ml BSA, 20 units/ml RNasin, 7.5 mM DTT, 0.1 μM ATP/GTP/UTP, 0.026 μM CTP, 0.25 mM GAU, 0.03 μM RNA template, 20 μCi/ml [^33P]-CTP, 2% DMSO, and 30 or 150 nM NS5B enzyme. Reactions were incubated at 22° C. for 2 hours, then stopped by adding 150 mM EDTA, washed in DE81 filter plate in 0.5M di-basic sodium phosphate buffer, pH 7.0, and counted using Packard TopCount after the addition of scintillation cocktail. Polynucleotide synthesis was monitored by the incorporation of radiolabeled CTP. The effect of the Compounds of Formula (I) on the polymerase activity was evaluated by adding various concentrations of a Compound of Formula (I), typically in 10 serial 2-fold dilutions, to the assay mixture. The starting concentrations ranged from 200 μM to 1 μM. An IC50 value for the inhibitor, defined as the compound concentration that provides 50% inhibition of polymerase activity, was determined by fitting the cpm data to the Hill equation Y=100/(1+10^((LogIC50-X)*HillSlope)), where X is the logarithm of compound concentration, and Y is the % inhibition. Ferrari et al., 12th International Symposium on HCV and Related Viruses, P-306 (2005) described in detail this assay procedure. It should be noted that such an assay as described is exemplary and not intended to limit the scope of the invention. The skilled practitioner can appreciate that modifications including but not limited to RNA template, primer, nucleotides, NS5B polymerase form, buffer composition, can be made to develop similar assays that yield the same result for the efficacy of the compounds and compositions described in the invention.
NS5B polymerase inhibition data for selected Compounds of Formula (I) is provided below in Table 2, wherein the compound numbers correspond to the compound numbering set forth in the above specification.

[2] = test system: HCV replicon cells (replicon RNA level); assay: Cell-Based HCV Replicon Assay; conditions: Hepatitis C virus, 72 h; replicon RNA level by real time PCR (Taqman), cells harvested on day 3; read-out: EC50
Protocol: To measure cell-based anti-HCV activity of the a Compound of Formula (I), replicon cells were seeded at 5000 cells/well in 96-well collagen I-coated Nunc plates in the presence of the Compound of Formula (I). Various concentrations of a Compound of Formula (I), typically in 10 serial 2-fold dilutions, were added to the assay mixture, with the starting concentration ranging from 250 μM to 1 μM. The final concentration of DMSO was 0.5%, fetal bovine serum was 5%, in the assay media. Cells were harvested on day 3 by the addition of 1× cell lysis buffer (Ambion cat #8721). The replicon RNA level was measured using real time PCR (Taqman assay). The amplicon was located in 5B. The PCR primers were: 5B.2F, ATGGACAGGCGCCCTGA; 5B.2R, […]; the probe sequence was FAM-labeled CACGCCATGCGCTGCGG. GAPDH RNA was used as endogenous control and was amplified in the same reaction as NS5B (multiplex PCR) using primers and VIC-labeled probe recommended by the manufacturer (PE Applied Biosystem). The real-time RT-PCR reactions were run on ABI PRISM 7900HT Sequence Detection System using the following program: 48° C. for 30 min, 95° C. for 10 min, 40 cycles of 95° C. for 15 sec, 60° C. for 1 min. The ΔCT values (CT5B-CTGAPDH) were plotted against the concentration of test compound and fitted to the sigmoid dose-response model using XLfit4 (MDL). EC50 was defined as the concentration of inhibitor necessary to achieve ΔCT=1 over the projected baseline; EC90 the concentration necessary to achieve ΔCT=3.2 over the baseline. Alternatively, to quantitate the absolute amount of replicon RNA, a standard curve was established by including serially diluted T7 transcripts of replicon RNA in the Taqman assay. All Taqman reagents were from PE Applied Biosystems. Such an assay procedure was described in detail in e.g. Malcolm et al., Antimicrobial Agents and Chemotherapy 50: 1013-1020 (2006).
HCV Replicon assay data for selected Compounds of Formula (I) is provided below in Table 1, wherein the compound numbers correspond to the compound numbering set forth in the above specification.

[3] = NS5B polymerase inhibition, [33P]-CTP incorporation, 22° C. for 2 hours, read-out: IC50

Structure (SMILES)	IC50 [1, 3]	EC50 [2]	IC50 [1]
NC(=O)c1ccc(F)c(Cn2c(C(=O)O)c(-c3ccc[nH]c3=O)c3c4occc4c(F)cc32)c1 [Compound 107]	< 25 nM	< 500 nM	–
O=C(O)c1ccc(F)c(Cn2c(C(=O)O)c(-c3ccc[nH]c3=O)c3c4occc4c(F)cc32)c1 [Compound 108]	< 25 nM	500 to 1500 nM	–
NC(=O)c1cnc(F)c(Cn2c(C(=O)O)c(-c3ccc[nH]c3=O)c3c4occc4c(F)cc32)c1 [Compound 109]	< 25 nM	< 500 nM	–
O=C(O)c1c(-c2ccc[nH]c2=O)c2c3occc3c(F)cc2n1Cc1cc([N+](=O)[O-])ccc1F [Compound 111]	< 25 nM	< 500 nM	–
NC(=O)c1cnc(F)c(Cn2c(C(=O)O)c(-c3ccc[nH]c3=O)c3c4c(c(F)cc32)CCO4)c1 [Compound 113]	< 25 nM	< 500 nM	–
O=C(O)c1c(-c2ccc[nH]c2=O)c2c3occc3c(F)cc2n1Cc1cc(=O)[nH]c2ccccc12 [Compound 114]	–	< 500 nM	< 25 nM
O=C(O)c1c(-c2ccc[nH]c2=O)c2c3occc3c(F)cc2n1Cc1cc2ccccc2[nH]c1=O [Compound 115]	< 25 nM	< 500 nM	–
O=C(O)c1c(-c2ccc[nH]c2=O)c2c3occc3ccc2n1Cc1cc2ccccc2nc1Cl [Compound 116]	< 25 nM	< 500 nM	–
O=C(O)c1c(-c2ccc[nH]c2=O)c2c3occc3c(F)cc2n1Cc1nc2ccccc2[nH]c1=O [Compound 117]	< 25 nM	< 500 nM	–
O=C(O)c1c(-c2ccc[nH]c2=O)c2c3occ(Cl)c3c(F)cc2n1Cc1cc(F)ccc1F [Compound 119]	< 25 nM	< 500 nM	–
O=C(O)c1c(-c2ccc[nH]c2=O)c2c3occc3c(F)cc2n1Cc1cc2nc[nH]c2cc1Cl [Compound 120]	< 25 nM	< 500 nM	–
CNC(=O)c1ccc(F)c(Cn2c(C(=O)O)c(-c3ccc[nH]c3=O)c3c4occc4c(F)cc32)c1 [Compound 121]	< 25 nM	< 500 nM	–
O=C(O)c1c(-c2ccc[nH]c2=O)c2c3occc3c(F)cc2n1Cc1cc2ccccc2nc1Cl [Compound 126]	–	< 500 nM	< 25 nM
O=C(O)c1c(-c2ccc[nH]c2=O)c2c3occc3c(F)cc2n1Cc1cc2c(=O)[nH]cnc2cc1F [Compound 127]	< 25 nM	< 500 nM	–
O=C(O)c1c(-c2ccccc2F)c2c3occc3c(F)cc2n1Cc1cc2ccccc2nc1Cl [Compound 128]	> 100 nM	< 500 nM	–
CCOC(=O)c1c(-c2ccc[nH]c2=O)c2c3occc3c(F)cc2n1Cc1cc(C(N)=O)ccc1F [Compound 130]	25 to 100 nM	< 500 nM	–
O=C(O)c1c(-c2ccc[nH]c2=O)c2c3occc3c(F)cc2n1Cc1cc2[nH]c(=O)[nH]c2cc1Cl [Compound 131]	< 25 nM	< 500 nM	–

Structure (SMILES)	IC50 [1, 3]	EC50 [2]	IC50 [1]
Cc1cc2ccc3c(c(-c4ccc[nH]c4=O)c(C(=O)NS(C)(=O)=O)n3Cc3ccccc3F)c2o1 [Compound 132]	25 to 100 nM	500 to 1500 nM	–
CS(=O)(=O)NC(=O)c1c(-c2ccc[nH]c2=O)c2c3occc3c(F)cc2n1Cc1ccnc(N)c1 [Compound 133]	< 25 nM	< 500 nM	–
CS(=O)(=O)NC(=O)c1c(-c2ccc[nH]c2=O)c2c3occc3c(F)cc2n1Cc1ccccc1F [Compound 134]	< 25 nM	< 500 nM	–
O=C(O)c1c(-c2ccc[nH]c2=O)c2c3occc3c(F)cc2n1Cc1cc(=O)[nH]cc1Br [Compound 135]	< 25 nM	< 500 nM	–
O=C(O)c1c(-c2ccc[nH]c2=O)c2c3occc3c(F)cc2n1Cc1nc(Br)ccc1F [Compound 136]	< 25 nM	< 500 nM	–
Cc1ccccc1Cn1c(C(=O)NS(=O)(=O)C2CC2)c(-c2ccc[nH]c2=O)c2c3occc3ccc21 [Compound 138]	< 25 nM	< 500 nM	–
Cc1ccc2cc(Cn3c(C(=O)O)c(-c4ccc[nH]c4=O)c4c5occc5c(F)cc43)c(Cl)nc2c1 [Compound 139]	< 25 nM	< 500 nM	–
Cc1ccc2nc(Cl)c(Cn3c(C(=O)O)c(-c4ccc[nH]c4=O)c4c5occc5c(F)cc43)cc2c1 [Compound 140]	< 25 nM	< 500 nM	–
O=C(NC1CC1)c1ccc(F)c(Cn2c(C(=O)O)c(-c3ccc[nH]c3=O)c3c4occc4c(F)cc32)c1 [Compound 141]	< 25 nM	> 1500 nM	–
Cc1nn(C)c2nc(Cl)c(Cn3c(C(=O)O)c(-c4ccc[nH]c4=O)c4c5occc5c(F)cc43)cc12 [Compound 143]	< 25 nM	< 500 nM	–
O=C(O)c1c(-c2ccc[nH]c2=O)c2c3occc3c(F)cc2n1Cc1ccc2[nH]c(C(F)(F)F)nc2c1 [Compound 145]	< 25 nM	500 to 1500 nM	–
Cc1cccc(Cn2c(C(=O)NS(C)(=O)=O)c(-c3ccc[nH]c3=O)c3c4occc4c(F)cc32)c1F [Compound 146]	< 25 nM	< 500 nM	–
Cc1cc2ccc3c(c(-c4ccc[nH]c4=O)c(C(=O)NS(C)(=O)=O)n3Cc3cc(F)ccc3F)c2o1 [Compound 147]	< 25 nM	> 1500 nM	–
C[C@@H]1COc2c1ccc1c2c(-c2ccc[nH]c2=O)c(C(=O)NS(C)(=O)=O)n1Cc1cc(F)ccc1F [Compound 148]	< 25 nM	< 500 nM	–
CS(=O)(=O)NC(=O)c1c(-c2ccc[nH]c2=O)c2c3occc3c(F)cc2n1Cc1cc(F)ccc1F [Compound 150]	< 25 nM	< 500 nM	–
CS(=O)(=O)NC(=O)c1c(-c2ccc[nH]c2=O)c2c3occc3cc(F)c2n1Cc1cc(F)ccc1F [Compound 151]	< 25 nM	500 to 1500 nM	–
